The subject of series [1] is endogenous IQGAP1/Cdc42 interaction. Kind of series: Immunoprecipitation of endogenous IQGAP1 and co-precipitated Cdc42 in HEK293 cell lysates. The settings on record: 0.2-50 µM. It is filed as binding. The procedure: Each compound was added to lysates from HEK293 cells at a final concentration of 50 µM and endogenous IQGAP1 was immunoprecipitated. DMSO alone was used as the negative control (100% binding).
HEK293 cells were plated in 10-cm dishes to reach 80% confluence. The following day, the cells were washed with ice-cold phosphate-buffered saline (PBS) and lysed with 500 µl of Buffer A (50 mM Tris–HCl, pH 7.4, 150 mM NaCl, and 1% Triton X-100) supplemented with complete protease and phosphatase inhibitors (Roche, Mannheim, Germany). Lysates were subjected to two rounds of sonication for 10 s each, and insoluble material was precipitated by centrifugation at 13,000 xg for 10 min at 4 °C. Supernatants were precleared with protein A-Sepharose beads for 1 h. DMSO (vehicle) or different concentrations of the compounds (0.2, 0.6, 1, 5, 16 or 50 µM) were added to equal amounts of protein lysates for 30 min. Protein A-Sepharose beads and anti-IQGAP1 polyclonal antibodies were then added for 2 h at 4 °C. Anti-rabbit IgG antibodies were used as the immunoprecipitation control. Samples were washed five times with Buffer A, resolved by SDS-PAGE and transferred to polyvinylidene fluoride (PVDF) membranes (Millipore Corp). Membranes were probed with anti-IQGAP1 and anti-Cdc42 antibodies. After secondary antibody detection, Western blots were imaged using a LI-COR Odyssey infrared imaging system (LI-COR, USA). Western blot quantification and analysis was conducted using Image Studio™ Lite (LI-COR Biosciences).

Series [2] has as its target T1, His-Cdc42 (Homo sapiens, UniProt P60953, Q61L).
T1 construct: made in house; host or cells: E. coli
As to the kind of experiment: Microscale thermophoresis (MST). Particulars: for effect on thermophoretic motion of Cdc42 / Kd: MST; for effect on thermophoretic motion of Cdc42: 500 µM to 244 nM; for Kd: 100 nM labeled His-Cdc42, n = 3. Type of series: binding. The procedure: Two-fold serial dilutions of compounds were first prepared in DMSO, then further diluted in PBS containing 0.05% Tween-20. […] Samples were loaded into Monolith™ standard capillaries and measured using Monolith NT.115 (Nanotemper Technologies) with 50% excitation power and 50% MST power, with laser on and off times of 30 s and 5 s, respectively. The Kd values were calculated by evaluating the thermophoresis and T-Jump signals using MO.Affinity Analysis software (Nanotemper Technologies). All experiments were conducted in three biological replicates.
A general note: MST reads how a fluorescent partner responds to local heating, with and without ligand.

In series [3] the target is T2, GST-Cdc42-Q61L-His (Homo sapiens, UniProt P60953, Q61L).
T2 construct: His (hexa-histidine in the Results); made in house; host or cells: Escherichia coli BL-21
T2 sequence (P60953 2-191 isoform P60953-1 Q61L): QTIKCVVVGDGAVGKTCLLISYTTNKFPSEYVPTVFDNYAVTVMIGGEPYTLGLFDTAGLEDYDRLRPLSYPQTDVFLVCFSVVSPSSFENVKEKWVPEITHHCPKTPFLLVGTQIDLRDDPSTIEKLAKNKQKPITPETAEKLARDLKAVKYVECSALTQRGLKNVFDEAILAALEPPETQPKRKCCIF
Kind of series: HTRF counter-screen with double-tagged Cdc42. Particulars: 100 nM GST-Cdc42-Q61L-His. The procedure: Two different HTRF counter-screens were used to identify false positive hits. The two interacting proteins GST-IQGAP1-C and His-Cdc42-Q61L were replaced with His-tagged GST or Cdc42-Q61L containing GST at the N-terminus and His at the C-terminus (GST-Cdc42-Q61L-His).
First, GST-Cdc42-Q61L-His was titrated in parallel with the pre-mixed His-Cdc42-Q61L and GST-IQGAP1-C to comparatively match the signal level to the signal of the primary HTRF assay. We chose 100 nM GST-Cdc42-Q61L-His protein as the final concentration for the counter-screen. The assay protocol is outlined in Supplementary Table S2 online. Briefly, 4 μL/well of […] diluted in binding buffer was dispensed to the plates, followed by pinning 23 nL/well of selected hit compounds from the primary screening and addition of 2 μL/well premixed HTRF antibodies. After 3 h, 1 μL/well of 2.8 M potassium fluoride was added to the assay and the fluorescence signal was read on the Envision instrument. For controls, we used pre-mixed proteins GST-IQGAP1-C and His-Cdc42-Q61L (primary assay’s regular conditions) as IC100, and […] at 1.5 nM final concentration as IC0.
Supplementary Table S2: Counter-screening HTRF protocol.
Step Parameter Value Description
1a Protein 4 µL 100 nM His-GST (final concentration), diluted in
1b Controls 4 µL Column 2: GST-IQGAP1-C protein only [1.5nM] final
Column 3: pre-mixed proteins (regular assay
2 Compounds 23 nL Selected compounds were pin-transferred from DMSO
HTRF α-His-XL (5 ng/µL, 3X working concentration) +
3 antibodies 2 µL α-GST-K (0.7 ng/µL 3X working concentration),
pre-mix mixed in binding buffer
4 Time 3 Incubation (ambient temperature)
5 Reagent 1 µL 2.8 M KF (7x)
6 Detector HTRF Envision plate reader (excitation: 340 nm, emission: […]

The nature of series [4]: pION µSOL kinetic aqueous solubility. It is filed as physicochemical. The settings on record: pION µSOL assay, pH 7.4; for solubility kinetic: aqueous medium.
Series [5] in a line: Parallel artificial membrane permeation assay (PAMPA). Particulars: for Papp: PAMPA, read-out: PAMPA passive permeability. Type of series: in vitro ADME. In general terms: In PAMPA a lipid-coated filter parts donor from acceptor wells.
Series [6] concerns MDA-MB-231 cells. As to the kind of experiment: Scratch wound migration assay. Particulars: for cell migration maximum efficiency / EC50: scratch wound, 72 h; for EC50: read-out: cell migration EC50. It is filed as cell-based, human. On the procedure:
MDA-MB-231 cells were grown to confluence and plated into a 96-well clear plate (Sartorius 4379) at 30,000 cells/100 µL/well in DMEM supplemented with 5% FBS. Cells were incubated at 37 °C with 5% CO2 overnight. Even wounds were created using a 96-pin wound device (Sartorius 4493) following the manufacturer’s protocol. Medium was then aspirated, and the cells were washed once with PBS pH 7.4 before adding 100 µL/well of fresh growth medium. Then 100 µL/well of growth medium containing compounds at an 8-point 1:2 titration dispensed into the cell plate resulting a final highest concentration of 50 µM for each compound. 0.5% DMSO was used as control. All samples were plated in triplicate. The plate was placed into an Incucyte SX5 Live-cell imaging system and phase images were taken in 2-h intervals for 72 h using the scratch wound setting. Medium was aspirated and replaced with a fresh medium containing compounds or DMSO after 24 h. The images were analyzed, and the wound density curves generated by the Incucyte software 2020A using the scratch wound analysis option.

A short description of series [7]: Metabolic half-life in rat liver microsome lysates. It is filed as in vitro ADME. Particulars: minimum detectable half-life of 1 min; for half-life: read-out: T1/2 metabolic half-life. In general terms: Liver microsomes are vesicles of endoplasmic reticulum, rich in cytochrome P450 enzymes.

Experimental findings from PMC9576799, “Discovery of small molecule inhibitors that effectively disrupt IQGAP1-Cdc42 interaction in breast cancer cells” (Scientific Reports, 2022) are described below.

Molecules are shown by their SMILES. Values after ≈ are worked out from the molar mass of the structure shown. Where two headings read alike, the source gives them in different places. A value given as a limit tells only on which side of the number the result lay.

T1 sequence (P60953 1-184 isoform P60953-1 Q61L): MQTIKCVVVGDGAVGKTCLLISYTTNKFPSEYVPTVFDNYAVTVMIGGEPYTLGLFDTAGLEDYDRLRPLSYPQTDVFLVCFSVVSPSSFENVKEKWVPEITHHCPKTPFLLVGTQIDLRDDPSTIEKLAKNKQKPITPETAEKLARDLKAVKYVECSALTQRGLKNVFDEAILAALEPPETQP

Take `Cc1cccc(NC(=O)c2c(NC(=O)C(F)(F)F)sc3c2CCCCC3)c1` [NCGC00098561]: the “effect on Cdc42 binding to IQGAP1 in immunoprecipitation” value (from here on “effect on Cdc42 binding to IQGAP1”) in series [1] is listed as “reduced the binding substantially”. The “effect on thermophoretic motion of Cdc42” value in series [2] is “did not affect the thermophoretic motion of Cdc42”. Moreover, the “activity in double-tagged Cdc42 counter-screen” value in series [3] is on record as “not active”.

As for `CCN(CC)CCn1c2ccccc2c2nc3ccc([N+](=O)[O-])cc3cc21` [MLS000332963], the “effect on Cdc42 binding to IQGAP1” value in series [1] is listed as “reduced the binding substantially”. Besides, in series [2] (MST samples, PBS containing 0.05% Tween-20), the “concentration above which precipitates formed” value is “above 62.5 µM”. Further, the “effect on thermophoretic motion of Cdc42” value in series [2] is given as “did not affect the thermophoretic motion of Cdc42”. The “activity in double-tagged Cdc42 counter-screen” value in series [3] was “inactive”. The “Solubility (kinetic aqueous)” value in series [4] is less than 1 µg/mL. The PAMPA passive permeability in series [5] worked out at 675 ×10⁻⁶ cm/s. For the same compound, the “effect on cell shape” value in series [6] (50 µM (Fig. S3)) is “flatter and spread out more on the plastic”. Moreover, in series [6], the “cell migration maximum efficiency” value turned out to be 39% and the EC50 worked out at 2.7 µM. The compound further gave a T1/2 metabolic half-life in series [7] of 11.47 min.

Consider `CCc1ccccc1Nc1ncnc2c1cnn2-c1ccc(Cl)cc1` [NCGC00138812], for which the “effect on Cdc42 binding to IQGAP1” value in series [1] is recorded as “reduced the binding substantially”. Also, the Kd in series [2] was determined as 96.2 µM. In addition, the EC50 in series [3] came to 6.31 µM; in series [6] (Homo sapiens) it was 12.9 µM. This compound registered a solubility (kinetic) in series [4] of less than 1 µg/mL. The Papp in series [5] was 177 ×10⁻⁶ cm/s. In addition, the “cell migration maximum efficiency” value in series [6] is given as 20%. The half-life in series [7] was 7.12 min.

Regarding `CCN1CCN(c2ncc3c(n2)CCN(Cc2cc(Br)cs2)C3)CC1` [NCGC00131308], the “effect on Cdc42 binding to IQGAP1” value in series [1] is reported as “reduced the binding substantially”. In addition, the equilibrium dissociation constant (Kd) in series [2] (read-out: dissociation constant (Kd) for Cdc42) came out at 28.1 µM. In series [3] (read-out: EC50 in double-tagged Cdc42 counter-screen), the EC50 came out at 4.47 µM. Also, in series [4], the kinetic solubility is 37.1 µg/mL (≈ 88 µM). The Papp in series [5] amounted to 77 ×10⁻⁶ cm/s. For the same compound, the inhibition at 50 µM in series [6] (Homo sapiens, 50 μM, the highest concentration used, read-out: inhibition of cell migration) is 57.7 ± 7.2%. Further, the half-life in series [7] is 2.7 min.

By Kd is commonly meant the concentration at which binding is half-saturated. For orientation: kinetic solubility means solubility judged after dilution from a stock solution rather than from solid.
